Reference: paper PMC4079689, “HIV Treatments Reduce Malaria Liver Stage Burden in a Non-Human Primate Model of Malaria Infection at Clinically Relevant Concentrations In Vivo” (PLoS ONE, 2014)
Where two headings read alike, the source gives them in different places. Values belong to the compound of their own block, whether it stands above or below them.

What was measured:
[1] = Indian origin, rhesus monkey, in vivo, po
[2] = in vivo; conditions: Indian origin, rhesus monkey, po; for Cmax: 50 mg/kg
[3] = human historical data, cited from earlier work
[4] = set-up: method as in Ibarra et al. Eur J Pharm Sci. 2012;46(5):516–21; conditions: human historical data, LPV-RTV; ref Ibarra et al. Eur J Pharm Sci. 2012;46(5):516–21; cited from earlier work
[5] = system: P. knowlesi asexual blood stage parasites; set-up: method as in PMID 21486958; conditions: rhesus macaques; cited from earlier work
[6] = Pharmacokinetic study, single dose by gavage, plasma HPLC-MS/MS
[7] = TMP-SMX, ref Patel et al. 1980, Dudley et al. 1984
[8] = rhesus JMF, dosing regimen LPV-RTV+TMP-SMX, sedated
[9] = rhesus JRH, dosing regimen LPV-RTV+TMP-SMX, awake
[10] = rhesus LK8A, dosing regimen LPV-RTV alone, sedated

Structure (SMILES): COc1cc(Cc2cnc(N)nc2N)cc(OC)c1OC [Trimethoprim]
- Cmax [1]: 130 ng/mL
- AUC(0-t) ([2]; in vivo): 1730 ng·h/mL
- T1/2 [3, 7]: 8 to 10 h
- Tmax [3, 7]: 1 to 4 h
- AUC0–24 ([3]; dose 5 mg/kg trimethoprim and 25 mg/kg sulfamethoxazole iv, ref Dudley et al. Antimicrob Agents Chemother 1984;26:811–814): 32.6 ^2 µg*hr/mL
- Cmax ([3]; dose 160 mg trimethoprim and 800 mg sulfamethoxazole, ref Patel et al. Clin Pharmacokinet 1980;5:405–423): 1–2 ^1 µg/mL

- Cmax [1]: 10900 ng/mL
- AUC(0-t) ([2]; in vivo): 171000 ng·h/mL
- Cmax ([2]; in vivo): 10300 ng/mL
Structure (SMILES): Cc1cccc(C)c1OCC(=O)N[C@@H](Cc1ccccc1)[C@@H](O)C[C@H](Cc1ccccc1)NC(=O)[C@H](C(C)C)N1CCCNC1=O [Lopinavir]
- AUC0–24 [4]: 95000 ng·h/mL
- Cmax [4]: 7060 ng/mL
- T1/2 [4]: 5.2 h
- Tmax [4]: 3 to 6 h

Structure (SMILES): CC(C)(C)NC(=O)[C@@H]1CN(Cc2cccnc2)CCN1C[C@@H](O)C[C@@H](Cc1ccccc1)C(=O)N[C@H]1c2ccccc2C[C@H]1O [indinavir]
- Killing activity against P. knowlesi [5]: exhibited killing activity

- AUC0–24 [6, 9]: 23200 ng·h/mL
- Tmax [6, 9]: 6.0 h
- Cmax ([2]; plasma): 3600 ng/mL
Structure (SMILES): CC(C)c1nc(CN(C)C(=O)N[C@H](C(=O)N[C@@H](Cc2ccccc2)C[C@H](O)[C@H](Cc2ccccc2)NC(=O)OCc2cncs2)C(C)C)cs1 [Ritonavir]
- AUC0–24 [4]: 4310 ng·h/mL
- T1/2 [4]: 5.12 h
- Tmax [4]: 3 to 6 h
- AUC0–24 [6, 8]: 11100 ng·h/mL
- Tmax [6, 8]: 24.0 h
- AUC0–24 [6, 10]: 37800 ng·h/mL
- Tmax [6, 10]: 8.0 h
